What was measured:
[1] = molecular target: PLK1 (Homo sapiens, UniProt P53350); test: Recombinant mitotic kinase assay, PLK1; assay type: biochemical; conditions: recombinant kinases
Description: (§1) […] assays were performed with recombinant protein of the indicated mitotic kinase (left) and AMPK family kinases (right) in the presence of THZ-4-63-1. […] Cells were treated with nocodazole (100 ng/ml) for 18 h or not treated (Asyn., asynchronous). Nocodazole-arrested mitotic cells (M) were isolated via shake-off. The attached cells enriched in G2 phase (G2) were harvested. A portion of the mitotic cells were washed off nocodazole and released into G1 phase after 4 hours of incubation (G1). […] In Panel D, mitotic lysates were prepared from the indicated cells, and treated with λ-phosphatase at 30° C. In Panel E, nocodazole-arrested mitotic cells were treated with increasing concentration of THZ-4-63-1 for 30 min. Cell lysates were subjected to immunoblotting.
(§2) To discover a selective MELK inhibitor, a few molecule scaffolds with the potential of binding to MELK were identified, including 2,4-disubstituted pyrimidines and benzonaphthyridinones. […] To investigate if THZ-4-63-1 confers selective inhibition on MELK, we tested its effect on other mitotic kinases. In assays using recombinant kinases, MELK kinase activity was 20-fold more sensitive to THZ-4-63-1, than that of Aurora A, Aurora B, CDK1, or PLK1 (FIG. 1B).

[2] = tested on: MDA-MB-468 cells; test: Live imaging of chromosome alignment in MDA-MB-468 GFP-H2B cells; assay type: cell-based, human; conditions: 1 μM
Description: MDA-MB-468 cells stably expressing GFP-H2B were treated with vehicle control, or 1 μM THZ-4-63-1, and immediately subjected to live imaging. Time given in hours:minutes, relative to the starting point of treatment. […] Each dot represent an individual mitotic event.
To utilize this novel compound for probing the roles of MELK in mitosis, we first treated asynchronized U2OS cells with THZ-4-63-1 (1 μM), and subjected the cells for live-cell imaging. The fusion protein GFP-Histone H2B was stably introduced into the cells to facilitate observing chromosome dynamics^2,7. […] MELK inhibition also delayed mitotic progression in human breast cancer cell line, MDA-MB-468 (FIG. 6). […] Together, these findings indicate that MELK is novel regulator for the normal progression of mitosis, and that inactivation or depletion of MELK induces a metaphase-like arrest in cancer cells.

[3] = molecular target: T1, NUAK1 (Homo sapiens, UniProt O60285); test: Recombinant AMPK family kinase assay, NUAK1; assay type: biochemical; conditions: recombinant kinases
T1 sequence (O60285 1-661): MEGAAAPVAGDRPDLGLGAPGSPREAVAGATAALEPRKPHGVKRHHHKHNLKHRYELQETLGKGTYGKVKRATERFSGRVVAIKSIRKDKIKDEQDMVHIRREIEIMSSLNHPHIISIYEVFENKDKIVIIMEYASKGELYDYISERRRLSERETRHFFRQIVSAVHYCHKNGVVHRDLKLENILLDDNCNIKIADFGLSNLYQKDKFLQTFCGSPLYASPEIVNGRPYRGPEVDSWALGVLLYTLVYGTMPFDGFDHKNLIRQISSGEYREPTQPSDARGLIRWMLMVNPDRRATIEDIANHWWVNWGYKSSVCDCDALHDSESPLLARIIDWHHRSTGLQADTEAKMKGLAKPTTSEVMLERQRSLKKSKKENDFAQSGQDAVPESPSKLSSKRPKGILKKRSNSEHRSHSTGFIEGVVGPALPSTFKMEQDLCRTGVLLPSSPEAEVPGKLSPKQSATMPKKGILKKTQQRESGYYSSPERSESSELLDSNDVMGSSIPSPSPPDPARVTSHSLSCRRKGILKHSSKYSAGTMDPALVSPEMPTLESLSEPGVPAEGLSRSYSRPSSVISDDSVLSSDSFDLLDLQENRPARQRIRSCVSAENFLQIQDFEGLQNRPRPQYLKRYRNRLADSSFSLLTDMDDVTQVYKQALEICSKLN
Description: as §1, §2

Sequence of PLK1 (P53350 whole entry, species assumed): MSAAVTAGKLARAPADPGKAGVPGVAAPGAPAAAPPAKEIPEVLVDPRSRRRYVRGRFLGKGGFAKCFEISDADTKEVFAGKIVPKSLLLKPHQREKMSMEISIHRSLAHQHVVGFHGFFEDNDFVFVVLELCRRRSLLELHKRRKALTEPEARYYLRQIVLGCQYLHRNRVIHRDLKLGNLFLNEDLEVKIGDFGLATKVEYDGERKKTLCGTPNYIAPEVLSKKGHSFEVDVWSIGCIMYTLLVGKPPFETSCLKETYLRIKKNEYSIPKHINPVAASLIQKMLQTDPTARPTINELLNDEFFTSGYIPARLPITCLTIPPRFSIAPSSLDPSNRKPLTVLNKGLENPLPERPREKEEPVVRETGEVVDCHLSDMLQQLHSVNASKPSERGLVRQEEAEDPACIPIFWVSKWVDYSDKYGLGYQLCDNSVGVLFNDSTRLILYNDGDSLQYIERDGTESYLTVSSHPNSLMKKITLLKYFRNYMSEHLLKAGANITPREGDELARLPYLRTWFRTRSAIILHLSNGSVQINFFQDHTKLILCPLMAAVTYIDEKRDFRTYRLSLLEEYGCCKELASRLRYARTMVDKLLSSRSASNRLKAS

SMILES: CN(C)Cc1ccc(-n2c(=O)ccc3cnc4ccc(-c5cc(Cl)c(O)c(Cl)c5)cc4c32)cc1 [THZ-4-63-1]
- MELK kinase activity more sensitive than that of PLK1 [1]: 20 fold
- Chromosome alignment [2]: inhibits chromosome alignment
- Selectivity for MELK over NUAK1 [3]: preferentially targets MELK

— patent US10544138B2, “Tricyclic kinase inhibitors of MELK and methods of use” (Dana-Farber Cancer Institute, Inc., priority 2015, dated 2020)
